Experiments:
[1] = test system: erythrocytic forms of P. falciparum (strain 3D7); assay: Viability screening of antiplasmodial activity (SYBR-gold DNA quantification, 96 h); assay type: cell-based, Plasmodium falciparum; conditions: for activity at 0.3 µM / activity at 3 µM / IC50: Plasmodium falciparum; for activity at 0.3 µM / activity at 3 µM: 96 h, strain 3D7, calculated on DMSO controls; for activity at 0.3 µM: read-out: Parasitemia (3D7) at 0.3 µM [%]; for activity at 3 µM: read-out: Parasitemia (3D7) at 3 µM [%]; for SI (Selectivity index for 3D7 erythrocytic forms versus HEK293 cells): 3D7 versus HEK293 cells; for IC50: 3D7, strain 3D7, erythrocytic forms; for IC50 (3D7) [nM]: strain 3D7, erythrocytic forms; for activity at 3 µM / antiplasmodial activity at the concentration investigated (in words): 3 µM
[2] = in vitro; assay type: cell-based, human; conditions: human, HEK293T Viability at 30 µM [%]
Experimental: Cytotoxic effects of test compounds on eukaryotic cells were investigated using a HEK293T cell viability assay. First, the cell density of a HEK293T culture was determined. […] The supernatant was then aspirated and fresh culture medium was added to 200 μL into which the test compounds were previously added. All substances were previously dissolved in DMSO. […] The viability of the cells was then examined by adding PrestoBlue® Cell Viability Agent (Invitrogen, Carlsbad, CA, USA). The supernatant was removed, 10% PrestoBlue® was added in preheated PBS and the culture was incubated for 30 min at 37 °C. In cells with an active metabolism, the PrestoBlue dye is reduced, causing it to fluorescence. The fluorescence (λex = 560 nm, λem = 590 nm) was measured in an EnVision Multilable Plate Reader (Perkin Elmer, Waltham, MA, USA; integration time 0.1 sec/well).

[3] = biological target: rPfGSK-3 (Plasmodium falciparum, UniProt O77344); assay: KinaseGlo Plus assay for inhibition of PfGSK-3; assay type: biochemical; conditions: 10 µM; remaining activity, calculated on DMSO controls; Table 3; read-out: rPfGSK-3 Activity at 10 µM [%]
rPfGSK-3, sequence (O77344 entry or part of it): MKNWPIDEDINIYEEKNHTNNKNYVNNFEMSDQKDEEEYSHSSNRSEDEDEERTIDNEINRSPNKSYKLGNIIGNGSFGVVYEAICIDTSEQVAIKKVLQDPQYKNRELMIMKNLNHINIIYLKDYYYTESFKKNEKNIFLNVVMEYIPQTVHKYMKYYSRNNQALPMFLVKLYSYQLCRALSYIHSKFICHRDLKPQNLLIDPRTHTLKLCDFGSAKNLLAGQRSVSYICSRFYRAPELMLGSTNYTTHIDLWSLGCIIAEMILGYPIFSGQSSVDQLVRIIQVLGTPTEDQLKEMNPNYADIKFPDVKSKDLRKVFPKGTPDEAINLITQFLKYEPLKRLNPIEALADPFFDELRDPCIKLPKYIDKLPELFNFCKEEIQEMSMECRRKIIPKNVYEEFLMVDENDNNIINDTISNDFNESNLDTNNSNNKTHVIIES

| SMILES | activity at 0.3 µM [1] [%] | activity at 3 µM [1] [%] | viability at 48 h, 30 µM [2] [%] | remaining activity at 10 µM [3] [%] | SI (Selectivity index for 3D7 erythrocytic forms versus HEK293 cells) [1] | IC50 [1] [nM] | IC50 (3D7) [nM] [1] | antiplasmodial activity at the concentration investigated (in words) [1] |
| --- | --- | --- | --- | --- | --- | --- | --- | --- |
| N#Cc1c(N)nc2sc(C(=O)Nc3cccc(Cl)c3)c(N)c2c1-c1ccc(N2CCCC2)cc1Cl [Compound 9s, 3,6-Diamino-4-[2-chloro-4-(pyrrolidin-1-yl)phenyl]-N-(3-chlorophenyl)-5-cyanothieno[2,3-b]pyridine-2-carboxamide] | 78.3 ± 15.2 | 4.8 ± 5 | 114 ± 40.3 | 113 ± 15.9 |  |  |  |  |
| N#Cc1c(N)nc2sc(C(=O)Nc3ccccc3Cl)c(N)c2c1-c1ccc(N2CCCC2)cc1Cl [Compound 9t, 3,6-Diamino-4-[2-chloro-4-(pyrrolidin-1-yl)phenyl]-N-(2-chlorophenyl)-5-cyanothieno[2,3-b]pyridine-2-carboxamide] | 68.9 ± 27.3 | 60.6 ± 23.7 | 99 ± 22.6 | 105 ± 6.6 |  |  |  |  |
| N#Cc1c(N)nc2sc(C(=O)Nc3ccccc3Cl)c(N)c2c1-c1ccc(N2CCOCC2)cc1Cl [Compound 9u, 3,6-Diamino-4-(2-chloro-4-morpholinophenyl)-N-(2-chlorophenyl)-5-cyanothieno[2,3-b]pyridine-2-carboxamide] | 74.5 ± 21.2 | 53.1 ± 29.6 | 87 ± 26.7 | 110 ± 6.2 |  |  |  |  |
| N#Cc1c(N)nc2sc(C(=O)Nc3ccc(Cl)cc3)c(N)c2c1-c1ccc(N2CCOCC2)cc1Cl [Compound 9v, 3,6-Diamino-4-(2-chloro-4-morpholinophenyl)-N-(4-chlorophenyl)-5-cyanothieno[2,3-b]pyridine-2-carboxamide] | 51.8 ± 38.6 | 6.2 ± 6.1 | 92.3 ± 18.8 | 91.8 ± 18.7 | >20 | 1470 |  |  |
| CN(CCNC(=O)OC(C)(C)C)c1ccc(-c2c(C#N)c(N)nc3sc(C(=O)Nc4cccc(Cl)c4)c(N)c23)c(Cl)c1 [Compound 9w, tert-Butyl {2-[(3-chloro-4-{3,6-diamino-2-[(3-chlorophenyl)carbamoyl]-5-cyanothieno[2,3-b]pyridin-4-yl}phenyl)(methyl)amino]ethyl}carbamate] | 50.1 ± 37.9 | 3.6 ± 2.4 | 76.1 ± 17.3 | 95.3 ± 8.6 | >30 | 860 |  |  |
| N#Cc1c(N)nc2sc(C(=O)Nc3ccc(F)cc3)c(N)c2c1-c1ccc(N2CCOCC2)cc1Cl [Compound 9x, 3,6-Diamino-4-(2-chloro-4-morpholinophenyl)-5-cyano-N-(4-fluorophenyl)thieno[2,3-b]pyridine-2-carboxamide] | 59 ± 43.6 | 8.7 ± 6.6 | 86.1 ± 16 | 90.2 ± 8.9 |  |  |  |  |
| CN(CCNC(=O)OC(C)(C)C)c1ccc(-c2c(C#N)c(N)nc3sc(C(=O)Nc4ccc(Cl)cc4)c(N)c23)c(Cl)c1 [Compound 9y, tert-Butyl {2-[(3-chloro-4-{3,6-diamino-2-[(4-chlorophenyl)carbamoyl]-5-cyanothieno[2,3-b]pyridin-4-yl}phenyl)(methyl)amino]ethyl}carbamate] | 36.6 ± 27.4 | 5.5 ± 4.6 | 81.7 ± 19.6 | 110 ± 7.7 | >40 | 699 |  |  |
| N#Cc1c(N)nc2sc(C(=O)Nc3ccc(Cl)cc3)c(N)c2c1-c1ccc(N2CCCC2)cc1Cl [Compound 9z, 3,6-Diamino-4-[2-chloro-4-(pyrrolidin-1-yl)phenyl]-N-(4-chlorophenyl)-5-cyanothieno[2,3-b]pyridine-2-carboxamide] | 73.1 ± 22.1 | 6.4 ± 5.8 | 91.9 ± 13.6 | 109 ± 4.9 |  |  |  |  |
| CC(C)(C)OC(=O)N1CCN(c2ccc(-c3c4c(nc5sc(C(=O)Nc6ccc(Cl)cc6)c(N)c35)CCC4)c(Cl)c2)CC1 [Compound 17a, tert-Butyl 4-(4-{3-amino-2-[(4-chlorophenyl)carbamoyl]-6,7-dihydro-5H-cyclopenta[b]thieno[3,2-e]-pyridin-4-yl}-3-chlorophenyl)piperazine-1-carboxylate] | 50.5 ± 26.3 | 8 ± 10.2 | 93.9 ± 6.5 | 102 ± 4 |  |  |  |  |
| Cc1cccc(-c2c3c(nc4sc(C(=O)Nc5ccc(Cl)cc5)c(N)c24)CCC3)c1 [Compound 17f, 3-Amino-N-(4-chlorophenyl)-4-(3-methylphenyl)-6,7-dihydro-5H-cyclopenta[b]thieno[3,2-e]pyridine-2-carboxamide] | 9.1 ± 16.1 | 1 ± 14.9 | 72.4 ± 23.4 | 103 ± 6.2 | >100 | 19.2 | two-digit nanomolar range |  |
| Cc1nc2sc(C(=O)Nc3ccc(Cl)cc3)c(N)c2c(-c2ccccc2)c1C(=O)OC(C)(C)C [Compound 17g, tert-Butyl 3-amino-2-[(4-chlorophenyl)carbamoyl]-6-methyl-4-phenylthieno[2,3-b]pyridine-5-carboxylate] | 11.7 ± 10.1 | 9.8 ± 15.1 | 56.9 ± 31.3 | 101 ± 5.5 | >100 | 25.3 | two-digit nanomolar range |  |
| Cc1cccc(-c2c(C(=O)OC(C)(C)C)c(C)nc3sc(C(=O)Nc4ccc(Cl)cc4)c(N)c23)c1 [Compound 17h, tert-Butyl 3-amino-2-[(4-chlorophenyl)carbamoyl]-6-methyl-4-(3-methylphenyl)thieno[2,3-b]pyridine-5-carboxylate] | 11.8 ± 12.3 | 2.3 ± 14.5 | < 50 | 106 ± 5.3 |  |  |  |  |
| Cc1cccc(-c2c(C(=O)O)c(C)nc3sc(C(=O)Nc4ccc(Cl)cc4)c(N)c23)c1 [Compound 17i, 3-Amino-2-[(4-chlorophenyl)carbamoyl]-6-methyl-4-(3-methylphenyl)thieno[2,3-b]pyridine-5-carboxylic acid] | 99.8 ± 18.8 | 62.4 ± 21.5 | 87.6 ± 19.6 | 106 ± 8 |  |  |  | only low |
| Cc1nc2sc(C(=O)Nc3ccc(Cl)cc3)c(N)c2c(-c2ccccc2)c1C(=O)O [Compound 17j, 3-Amino-2-[(4-chlorophenyl)carbamoyl]-6-methyl-4-phenylthieno[2,3-b]pyridine-5-carboxylic acid] | 76.1 ± 23.1 | 97.1 ± 19.9 | 95.8 ± 9.8 | 108 ± 10.4 |  |  |  | no |
| CC(C)(C)OC(=O)N1CCN(c2ccc(-c3c4c(nc5sc(C(=O)Nc6ccc(Cl)cc6)c(N)c35)CCCC4)c(Cl)c2)CC1 [Compound 17k, tert-Butyl 4-(4-{3-amino-2-[(4-chlorophenyl)carbamoyl]-5,6,7,8-tetrahydrothieno[2,3-b]quinolin-4-yl}-3-chlorophenyl)piperazine-1-carboxylate] | 30 ± 24.9 | 2.6 ± 9 | 84.3 ± 14.3 | 106 ± 18.7 |  |  |  |  |
| Cc1cc(-c2ccc(N3CCN(C(=O)OC(C)(C)C)CC3)cc2Cl)c2c(N)c(C(=O)Nc3ccc(Cl)cc3)sc2n1 [Compound 17l, tert-Butyl 4-(4-{3-amino-2-[(4-chlorophenyl)carbamoyl]-6-methylthieno[2,3-b]pyridin-4-yl}-3-chloro-phenyl)piperazine-1-carboxylate] | 25.5 ± 14.4 | 1 ± 6.9 | 68.4 ± 24.3 | 103 ± 12.9 | >100 | 55.5 | two-digit nanomolar range |  |
